Read-outs that look alike come from different tables or passages of the source.
Key:
SDH-WT cells = experiment: Cellular / differential toxicity assay (CellTiter-Glo, 3 days); assay type: cell-based, murine; settings: Mus musculus, 72 h, toxicity, SDH-WT cells, 3 days, CellTiter-Glo; read-out: EC50 (uM) SDH-WT
Procedure, shortened: (§1)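 Isogenic SDHB-deficient (HRAS-transformed SDH-KO) and SDH-WT cells grown in DMEM-F12 with 1 mM glutamine and 3% FBS, plated with compound (10-point dilution from 10 uM to 0.0065 uM or lower) for 3 days at 37 °C, 5% CO2. Viability by CellTiter-Glo luminescence; EC50 calculated.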

[1] = test system: SDH-KO-HRAS cells (SDHB-deficient); experiment: as above; assay type: cell-based, murine; settings: Mus musculus, 72 h, toxicity, SDH-KO cells, 3 days, CellTiter-Glo; read-out: EC50 (uM) SDH-KO-HTAS-C17
Procedure, shortened: as §1

[2] = Glucose levels and Maximum Tolerated Dose in mice at different diets; assay type: in vivo
Text: Glucose Levels as Measured in Mice after Different Dosages of Compound 111 at Different Diets.

[3] = test system: SDH-KO cells (SDH-deficient tumors); experiment: Tumor volume of SDH-KO cells vs. time in mice on ketogenic diet; assay type: in vivo; settings: treated two weeks post-injection, prior to tumor formation
Text: FIG. 10 depicts the tumor volume of SDH-KO cells vs. time in mice on ketogenic diet, treated for two weeks post-injection, but prior to tumor formation.

[4] = Plasma glucose levels in mice after oral administration; assay type: in vivo; settings: 2 mg/Kg
Description: FIG. 8 depicts the glucose levels in mice plasma after oral administration of 2 mg/Kg of compound 111. Compound 111 at 2 mg/kg was orally administrated to mice. Blood samples were taken at different time points thereafter and Glucose level was determined.

HCT116 (Colon cancer) = experiment: Toxicity assay with or without rotenone; assay type: cell-based; settings: Homo sapiens, HCT-116, 72 hours
Description: (§2) Toxicity assay: Cells were growing in 96 well plates in DMEM F12 with 17 mM glucose, 0.5 mM Sodium Pyruvate, 1 mM Glutamine and 3% FBS. The cells were treated with the indicated compounds (10 different concentrations) with or without 25 nM rotenone. Viability was determined after 72 hours of treatment using CellTiter Glo reagent (Promega). EC50 was calculated using Prism software.

[5] = test system: MiaPaca2 (Pancreatic cancer); experiment: Toxicity assay with or without rotenone; assay type: cell-based; settings: Homo sapiens, MIA PaCa-2, 72 hours
Description: as §2

[6] = test system: MDA-MB-468 (Breast cancer); experiment: Toxicity assay with or without rotenone; assay type: cell-based; settings: Homo sapiens, 72 hours
Description: as §2

MM.1S (Multiple myeloma) = experiment: Toxicity assay with or without rotenone; assay type: cell-based; settings: Homo sapiens, MM1.S, 72 hours
Description: as §2

[7] = test system: Panc1 (Pancreatic cancer); experiment: Toxicity assay with or without rotenone; assay type: cell-based; settings: Homo sapiens, PANC-1, 72 hours
Description: as §2

Question: What does the source list for `CC(=O)Nc1ccc(CCNc2ncnc3c2sc2nc4c(cc23)COC(C)(C)C4)cc1` [Compound 111]?
Answer: EC50 (SDH-WT cells): > 10 µM; EC50 [1]: < 1 µM; elevation in plasma glucose levels on ketogenic diet ([2]; ketogenic diet): delayed; Maximum Tolerated Dose (MTD) on ketogenic diet ([2]; ketogenic diet vs other diet): doubled; tolerability on ketogenic diet ([2]; ketogenic diet, two weeks of treatment): up to 4 mg/Kg; tumor onset and growth (tumor volume vs. time) [3]: delays tumor onset and growth; level of glucose in the plasma [4]: increase; EC50 (HCT116 (Colon cancer); HCT116, with 25 nM rotenone, read-out: EC50 (nM) with Rotenone): 510 nM; EC50 (HCT116 (Colon cancer); HCT116, without rotenone, read-out: EC50): 9700 nM; EC50 ([5]; MiaPaca2, with 25 nM rotenone, read-out: EC50 (nM) with Rotenone): 61 nM; EC50 ([5]; MiaPaca2, without rotenone, read-out: EC50): 37000 nM; EC50 ([6]; MDA-MB-468, with 25 nM rotenone, read-out: EC50 (nM) with Rotenone): 1400 nM; EC50 ([6]; MDA-MB-468, without rotenone, read-out: EC50): > 30000 nM; EC50 (MM.1S (Multiple myeloma); with 25 nM rotenone, read-out: EC50 (nM) with Rotenone): 52 nM; EC50 (MM.1S (Multiple myeloma); without rotenone, read-out: EC50): 79000 nM; EC50 ([7]; Panc1, with 25 nM rotenone, read-out: EC50 (nM) with Rotenone): 91 nM; EC50 ([7]; Panc1, without rotenone, read-out: EC50): 136000 nM

Reference: patent US20230084927A1, “GLUCOSE UPTAKE INHIBITORS AND USES THEREOF” (METABOMED LTD., priority 2019, published 2023)
